This note sets out measurements from PubChem BioAssay (NCI).

Structures are written as SMILES.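 1) Cells in 96-well plates. 2) Compound, 48 h, 5 concentrations. 3) Linear interpolation between surrounding doses. 4) Unreached endpoint = highest concentration. At the GI50, growth is halved. TGI: total growth inhibition.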

Common to all, as to assay: NCI anticancer screen, dose series, 48 h
The test system of test [1] is A498 renal.
In test [2] the test system is BT-549 breast.
Test [3] deals with COLO 205 colon.
Test [4] concerns M14 melanoma.
In test [5] the test system is MDA-MB-231 breast.
The subject of test [6] is NCI-H226 lung.
Test [7] concerns OVCAR-4 ovarian.
Test [8] has as its system OVCAR-8 ovarian.
The subject of test [9] is SNB-19 CNS.
The test system of test [10] is RPMI-8226 leukemia.

Regarding `CC1(C)CC2(C)CC1CC2NC(=O)CCN1CCOCC1` (configuration not stated), the TGI in test [1], in test [2], in test [3], in test [4], in [5] and in test [6] was above 100 µM throughout. Moreover, the TGI in test [7], in [8] and in test [9] was above 100 µM throughout.

In the case of `O=C(Nc1cccc(-n2cc(-c3ccncc3)c(-c3ccc(O)c(Cl)c3)n2)c1)Nc1cccc(C(F)(F)F)c1`, the GI50 in test [1] was 1.9 µM; in test [2], 1.72 µM; in test [3], 1.96 µM; in test [4] it was 1.74 µM; in test [5], 2.24 µM; in [6], 2.52 µM. Also, the figures for the GI50 in [8], in test [10] and in test [9] were 2.41 µM, 1.77 µM and 2.88 µM, respectively. For the same compound, the TGI in test [1] is 8.99 µM; in [2] it was 4.08 µM; in [3], 3.73 µM; in [4] it was 3.94 µM; in test [5], 16.9 µM; in [6], 9.02 µM. For the same compound, the TGI came out at 11.1 µM in test [8], 5.13 µM in [10] and 46.2 µM in test [9].

With `Cc1nc(C(N)=S)sc1C(=O)C/C(=N/N)C(=O)Nc1ccc(Cl)cc1`, the TGI in [2], in [4], in test [5], in test [6], in [7] and in test [8] was above 100 µM throughout. Further, the TGI in [10] and in [9] was above 100 µM each time.

Consider `COC1=C(Br)C(=O)C2=C(C1=O)C1C3=C(C(=O)C=CC3=O)C2c2ccccc21` (configuration not stated), for which the GI50 in test [2] is 16.8 µM; in test [3] it was 12.3 µM; in test [4] it was 33.4 µM; in [5], 8.15 µM; in test [6] it was 21 µM; in [7], 13.7 µM. Also, the GI50 is 24.3 µM in [8], 4.04 µM in [10] and 16.6 µM in test [9]. Moreover, the TGI in test [2] came to 38.3 µM; in test [3] it was 44.9 µM; in [4], 80.4 µM; in [5], 66.1 µM; in test [6], 46.4 µM; in test [7] it was 63.7 µM. The TGI in [8] is above 100 µM; in test [10], above 100 µM; in test [9] it was 43.3 µM.

Turning to `NC(CC1=CCC=CC1)C(=O)O` (configuration not stated), the TGI in test [1], in [2], in test [3], in [4], in test [5] and in test [7] was above 100 µM each time. The TGI in [8], in test [10] and in test [9] was above 100 µM each time.

Take `CCOC(=O)c1cc(C(=O)c2cc(OC)c(OC)c(OC)c2)n2ccccc12`: the GI50 was 0.0269 µM in [1]; 0.0597 µM in test [2]; 0.0588 µM in test [3]; 0.0377 µM in test [4]; 2.81 µM in test [5]; 19.3 µM in [6]. Also, the GI50 in [8] is 0.259 µM; in test [10], 0.121 µM; in test [9], 0.206 µM. For the same compound, the TGI in test [1] is 9.55 µM; in test [2] it was above 100 µM; in test [3], 2.57 µM; in test [4], 0.388 µM; in test [5], above 100 µM; in test [6] it was above 100 µM. Moreover, the TGI in test [8], in [10] and in test [9] was above 100 µM throughout.

For the compound `COc1ccc(N(/C=C/C(=O)C(F)(F)F)CC(=O)c2ccc(Cl)c(Cl)c2)cc1`, the GI50 in test [1] was 10.1 µM; in [2], 7.57 µM; in test [3], 20.2 µM; in [4] it was 12.7 µM; in test [5], 14.4 µM; in test [6], 18.5 µM. In addition, the GI50 in [7] is 32 µM; in test [8], 13.2 µM; in test [10], 5.56 µM. In addition, the TGI in test [1] was found to be 22.2 µM; in test [2], 22 µM; in test [3] it was 39.6 µM; in [4], 25.6 µM; in test [5] it was 38.6 µM; in [6] it was 37.9 µM. Also, the TGI in test [7] is above 100 µM; in test [8] it was 36.6 µM; in test [10] it was 56.6 µM.

Turning to `CCNCCCn1c2c(c3ccc([N+](=O)[O-])cc3c1=O)C(=O)c1cc(OC)cnc1-2`, the GI50 was 0.172 µM in test [2]; 0.0874 µM in [3]; 0.0408 µM in test [4]; 0.326 µM in test [5]; 0.176 µM in test [7]; 0.0519 µM in test [8]. In addition, the GI50 in [10] is 0.0813 µM; in [9], 0.0576 µM. Besides, the TGI amounted to 1.2 µM in test [2]; 1.67 µM in test [3]; 0.437 µM in [4]; 1.49 µM in [5]; 1.49 µM in test [7]; 0.479 µM in [8]. The TGI came out at 0.976 µM in [10] and 2.53 µM in [9].

For the compound `C[C@H](N)C(=O)N1C[C@H](CCCB(O)O)[C@](N)(C(=O)O)C1`, the GI50 in test [1], in [2], in test [3], in [4], in [5] and in test [6] was above 100 µM in each case. Moreover, the GI50 in test [8], in test [10] and in test [9] was above 100 µM throughout. The TGI in test [1], in [2], in [3], in [4], in test [5] and in [6] was above 100 µM in each case. Also, the TGI in [8], in test [10] and in test [9] was above 100 µM in each case.
